According to patent US8133849B2, “Herbicidal compounds” (Syngenta Limited, priority 2007, dated 2012):

Tests used:
Assay in all cases: Example B2 herbicidal action, post-emergence, pots in glasshouse, damage score 0-10
Type in all cases: in vivo
Settings in all cases: application post-emergence, rate 1000 g/ha, evaluated after 13 days
Amaranthus retroflexus = test system: Amaranthus retroflexus
Method in brief: (§1)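 Seedlings grown 8 days in a controlled glasshouse received a foliar spray of the compound formulated in 50:50 acetone/water plus 0.5% Tween 20; plant damage was assessed 13 days afterward.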

Echinochloa crus-galli = test system: Echinochloa crus-galli
Method in brief: as §1

Ipomea hederaceae = test system: Ipomea hederaceae
Method in brief: as §1

Setaria faberi = test system: Setaria faberi
Method in brief: as §1

Solanum nigrum = test system: Solanum nigrum
Method in brief: as §1

| Structure (SMILES) | AMARE damage score (10=total damage to plant; 0=no damage to plant) (Amaranthus retroflexus) | ECHCG damage score (10=total damage to plant; 0=no damage to plant) (Echinochloa crus-galli) | IPOHE damage score (10=total damage to plant; 0=no damage to plant) (Ipomea hederaceae) | SETFA damage score (10=total damage to plant; 0=no damage to plant) (Setaria faberi) | SOLNI damage score (10=total damage to plant; 0=no damage to plant) (Solanum nigrum) |
| --- | --- | --- | --- | --- | --- |
| O=C(OC1=C(c2c(Cl)cccc2C(F)(F)F)S(=O)(=O)N(CC(F)F)c2nccnc21)Sc1ccccc1 [Compound C125] | 9 | 8 | 8 | 8 | 9 |
| CCSC(=O)OC1=C(c2c(Cl)ccc(Cl)c2Cl)S(=O)(=O)N(CC(F)F)c2nccnc21 [Compound C37] | 8 | 8 | 9 | 6 | 9 |
| CCSC(=O)OC1=C(c2cc(Cl)ccc2C(F)(F)F)S(=O)(=O)N(CC(F)F)c2nccnc21 [Compound C112] | 10 | 6 | 9 | 6 | 10 |
| CC(C)C(=O)OC1=C(c2cc(C(F)(F)F)ccc2Cl)S(=O)(=O)N(CCCl)c2nccnc21 [Compound C123] | 4 | 2 | 4 | 1 | 10 |
| CSC(=O)OC1=C(c2ccc(C(F)(F)F)cc2C(F)(F)F)S(=O)(=O)N(CC(F)F)c2nccnc21 [Compound C131] | 9 | 4 | 9 | 2 | 10 |
| CCSC(=O)OC1=C(c2c(Cl)ccc(Cl)c2C(F)(F)F)S(=O)(=O)N(CC(F)F)c2nccnc21 [Compound C103] | 8 | 7 | 6 | 6 | 9 |
| CC(C)C(=O)OC1=C(c2cccc(C(F)(F)F)c2Cl)S(=O)(=O)N(CC(F)F)c2nccnc21 [Compound C73] | 7 | 2 | 7 | 2 | 7 |
| CC(C)C(=O)OC1=C(c2c(Cl)ccc(Cl)c2Cl)S(=O)(=O)N(C)c2nccnc21 [Compound C92] | 6 | 4 | 9 | 3 | 9 |
| CCSC(=O)OC1=C(c2c(F)ccc(Cl)c2Cl)S(=O)(=O)N(CC(F)F)c2nccnc21 [Compound C32] | 8 | 7 | 9 | 1 | 8 |
| O=S1(=O)C(c2ccc(Cl)cc2Cl)=C(O)c2nccnc2N1CC(F)(F)F [Compound D51] | 7 | 2 | 7 | 1 | 8 |
| O=S1(=O)C(c2ccc(I)cc2Cl)=C(O)c2nccnc2N1CC(F)F [Compound D59] | 4 | 3 | 4 | 1 | 8 |
| CCN1c2nccnc2C(O)=C(c2cccc(Cl)c2Cl)S1(=O)=O [Compound D49] | 4 | 1 | 6 | 1 | 8 |
| CCN1c2nccnc2C(O)=C(c2cc(C(F)(F)F)ccc2Cl)S1(=O)=O [Compound D15] | 9 | 2 | 9 | 4 | 9 |
| CCN1c2nccnc2C(OC(=O)C(C)C)=C(c2ccccc2OC(F)(F)F)S1(=O)=O [Compound C13] | 10 | 10 | 10 | 3 | 9 |
| COc1ccc(F)c(C2=C(OC(=O)C(C)(C)C)c3nccnc3N(CC(F)F)S2(=O)=O)c1Cl [Compound C25] | 9 | 6 | 9 | 0 | 10 |
| O=S1(=O)C(c2c(C(F)(F)F)ccc(Cl)c2Cl)=C(O)c2nccnc2N1CC(F)F [Compound D57] | 10 | 9 | 7 | 10 | 10 |
| COCN1c2nccnc2C(OC(=O)C(C)(C)C)=C(c2ccccc2SC(F)(F)F)S1(=O)=O [Compound C23] | 5 | 4 | 4 | 3 | 6 |
| O=S1(=O)C(c2cc(C(F)(F)F)ccc2Cl)=C(O)c2c(ncc[n+]2[O-])N1CC(F)F [Compound E1, 3-(2-chloro-5-trifluoromethyl-phenyl)-1-(2,2-difluoro-ethyl)-2,2-dioxo-5-oxy-1,2-dihydro-2-λ-6-thia-1,5,8-triaza-naphthalen-4-ol] | 4 | 3 | 7 | 1 | 9 |
| O=S1(=O)C(c2c(F)cccc2C(F)(F)F)=C(O)c2nccnc2N1CC(F)F [Compound D39] | 10 | 9 | 10 | 9 | 9 |
| CC(C)C(=O)OC1=C(c2ccccc2C(F)(F)F)S(=O)(=O)N(CCCl)c2nccnc21 [Compound C121] | 0 | 0 | 1 | 2 | 5 |
| CCN1c2nccnc2C(OS(=O)(=O)C(F)(F)F)=C(c2ccc(Cl)cc2C(F)(F)F)S1(=O)=O [Compound C29, trifluoromethanesulfonic acid-3-(4-chloro-2-trifluoromethylphenyl)-1-ethyl-2,2-dioxo-1,2-dihydro-2-λ-6-thia-1,5,8-triaza-naphthalen-4-yl ester] | 2 | 4 | 5 | 0 | 5 |
| CCN1c2nccnc2C(O)=C(c2c(Cl)ccc(Cl)c2Cl)S1(=O)=O [Compound D36] | 10 | 6 | 10 | 2 | 10 |
| CC(C)(C)C(=O)OC1=C(c2cc(F)c(Cl)cc2Cl)S(=O)(=O)N(CC(F)F)c2nccnc21 [Compound C47] | 10 | 4 | 7 | 7 | 10 |
| CCN1c2nccnc2C(OC(=O)C(C)C)=C(c2c(Cl)cccc2C(F)(F)F)S1(=O)=O [Compound C30] | 8 | 6 | 9 | 5 | 10 |
| O=S1(=O)C(c2c(Cl)ccc(Cl)c2C(F)(F)F)=C(O)c2nccnc2N1CC(F)F [Compound D27] | 9 | 7 | 7 | 8 | 8 |
